Assays:
[1] = tested on: aortic banding (TAC) models; conditions: cited from earlier work
cardiac hypofunction = conditions: dosing after cardiac loading; cited from earlier work
[2] = tested on: hypoxia-induced pulmonary hypertension (HPH) mice; conditions: cited from earlier work
[3] = tested on: monocrotaline (MCT)-induced pulmonary hypertension rats; conditions: cited from earlier work
CYP3A = test: CYP induction (CYP3A activity in cryopreserved hepatocytes, P450-Glo CYP3A4 assay); type: in vitro ADME; conditions: % of positive control; inducibility by 10 μmol/L rifampicin defined as 100%; hepatocytes treated 3 days
Protocol: Cryopreserved hepatocytes were thawed in a culture medium (In VitroGRO™ CP Medium, Celsis In Vitro Technologies, U.S.A.), and the resultant was added to BioCoat™ Matrigel®™ Matrix Thin-Layer 96 well (Becton, Dickinson and Company, U.S.A.) at a concentration of 40,000 cells/well. After culturing for 24 hours, the culture medium was removed, and replaced with an incubation medium (In VitroGRO™, HI Medium with Torpedo Antibiotic Mix, Celsis In Vitro Technologies, U.S.A.). Cells were cultured for an additional 3 days. The medium was removed on day 4, and the remained cells were treated in the induction medium containing a test compound for 3 days in the presence or absence of 10 μmol/L rifampicin. The induction medium was replaced every day. The test compound addition wells in the presence of 10 μmol/L rifampicin were used to evaluate the inhibitory effect of the test compound on the inducibility of the CYP3A activity by rifampicin. The CYP3A activity was evaluated by measuring luciferin generating amount after the addition of 2 μmol/L luciferin-IPA using IPA P450-Glo™ CYP3A4 assay systems (Promega Corporation, U.S.A.). All cultures were carried out under a humidified environment at 37° C., 5% CO2. The inducibility by rifampicin was defines as 100%, and the inducibility of the test compound (% of positive control) was calculated from the following equation: [(luciferin fluorescence intensity in the absence of rifampicin and the presence of test compound)−(luciferin fluorescence intensity in the absence of rifampicin and test compound)/(luciferin fluorescence intensity in the presence of rifampicin and the absence of test compound)−(Luciferin fluorescence intensity in the absence of rifampicin and test compound)]×100.

CYP3A4 = molecular target: T1, CYP3A4 (Homo sapiens, UniProt P08684); test: CYP3A4 TDI in human liver microsomes (testosterone 6β-hydroxylation); type: in vitro ADME; conditions: 30 μM test compound, 60 min vs 0 min preincubation, solvent acetonitrile
T1 construct: Human liver microsomes purchased from XenoTech, LLC (Lenexa, KS) was used; tissue XenoTech, LLC (Lenexa, KS); host or cells: human liver microsomes
T1 sequence (P08684 whole entry): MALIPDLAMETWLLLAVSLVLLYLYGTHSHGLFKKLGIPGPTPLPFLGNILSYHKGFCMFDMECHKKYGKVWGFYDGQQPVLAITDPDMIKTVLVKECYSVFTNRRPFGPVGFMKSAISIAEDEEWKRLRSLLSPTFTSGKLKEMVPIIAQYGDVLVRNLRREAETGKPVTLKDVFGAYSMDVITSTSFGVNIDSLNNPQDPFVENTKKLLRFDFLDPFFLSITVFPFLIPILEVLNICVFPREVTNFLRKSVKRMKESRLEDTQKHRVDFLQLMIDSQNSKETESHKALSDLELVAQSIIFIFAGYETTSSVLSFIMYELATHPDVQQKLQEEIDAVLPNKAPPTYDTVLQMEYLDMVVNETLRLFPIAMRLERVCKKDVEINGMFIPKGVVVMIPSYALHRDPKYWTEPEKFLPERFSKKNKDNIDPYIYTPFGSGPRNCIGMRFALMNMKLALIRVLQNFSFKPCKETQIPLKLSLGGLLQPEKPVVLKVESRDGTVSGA
Protocol: Human liver microsomes purchased from XenoTech, LLC (Lenexa, KS) was used. Test compounds were dissolved in acetonitrile or DMSO/acetonitrile (1:4, v/v). To a human liver microsomes solution adjusted with phosphate buffer (pH 7.4), the test compound solution was added to obtain a human liver microsomes reaction solution having the test compound concentration of 30 μM. To the human liver microsome reaction solution, NADPH production system was added, and the mixture was preincubated at 37° C. for 0 minutes or 60 minutes. After the preincubation, probe substrate testosterone was added, and testosterone metabolite 6β-hydroxytestosterone was analyzed by LC/MS/MS to evaluate CYP3A4 enzymatic activity.
The enzyme activity (% of control) at each preincubation point was calculated from the following equation: % of control={(activity of test compound addition group)/(activity of test compound non-addition group)}×100.
The remaining activity (% remaining) after 60 minutes of preincubation was calculated from the following equation: Remaining activity (%)={activity after 60 minutes (% of control60 min)}/{activity after 0 minutes (% of control0 min)}×100.

human CaSR = molecular target: T2, human CaSR (Homo sapiens, UniProt P41180); test: Human CaSR antagonist activity (NFAT-Luciferase reporter in CHO cells); type: cell-based; conditions: CHO, CaCl2 final 1.3 mM, 100% = reference antagonist at 10 μM, read-out: Inhibition rate (%) at 3.3 μM
T2 construct: expressed in transfected cells; host or cells: CHO cells
T2 sequence (P41180 20-1078): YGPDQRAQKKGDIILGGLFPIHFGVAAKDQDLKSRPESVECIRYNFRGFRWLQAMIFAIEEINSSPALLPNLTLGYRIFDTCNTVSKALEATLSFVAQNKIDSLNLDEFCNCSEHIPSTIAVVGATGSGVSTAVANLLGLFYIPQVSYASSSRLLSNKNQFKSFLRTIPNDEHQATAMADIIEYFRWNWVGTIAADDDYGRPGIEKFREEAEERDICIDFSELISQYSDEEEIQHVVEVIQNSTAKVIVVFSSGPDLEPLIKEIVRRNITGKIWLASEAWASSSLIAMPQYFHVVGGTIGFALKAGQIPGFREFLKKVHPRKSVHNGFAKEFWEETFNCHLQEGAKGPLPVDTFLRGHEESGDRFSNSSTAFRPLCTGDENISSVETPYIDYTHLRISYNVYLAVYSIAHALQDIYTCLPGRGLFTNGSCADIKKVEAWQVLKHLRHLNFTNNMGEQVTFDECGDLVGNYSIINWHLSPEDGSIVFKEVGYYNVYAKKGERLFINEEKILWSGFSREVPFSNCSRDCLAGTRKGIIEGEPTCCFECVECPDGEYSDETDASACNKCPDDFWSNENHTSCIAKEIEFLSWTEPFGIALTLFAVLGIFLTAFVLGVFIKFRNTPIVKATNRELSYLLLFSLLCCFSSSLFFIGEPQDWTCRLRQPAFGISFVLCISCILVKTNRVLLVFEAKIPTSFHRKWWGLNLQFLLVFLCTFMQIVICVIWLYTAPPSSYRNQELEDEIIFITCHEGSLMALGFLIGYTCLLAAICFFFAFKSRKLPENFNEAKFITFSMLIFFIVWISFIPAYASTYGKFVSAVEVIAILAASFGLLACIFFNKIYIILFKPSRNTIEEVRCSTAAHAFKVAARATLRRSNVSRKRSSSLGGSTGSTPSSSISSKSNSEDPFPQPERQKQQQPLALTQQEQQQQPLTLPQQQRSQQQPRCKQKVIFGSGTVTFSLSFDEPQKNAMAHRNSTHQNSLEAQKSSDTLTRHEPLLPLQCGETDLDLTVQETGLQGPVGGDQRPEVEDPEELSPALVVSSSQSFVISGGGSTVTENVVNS
Protocol: CaSR antagonist activity measurement was performed using Bright-Glo Luciferase assay system (Promega Corporation). CHO cells in which human CaSR and NFAT-Luciferase reporter gene were forcibly expressed were suspended in MEM alpha (Wako Pure Chemical Industries, Ltd.) containing 10% dialyzed serum (HyClone). The cells in suspension was seeded in 384-well white plate (Corning) at 10,000/20 μL/well, and cultured in an incubator of 37° C., 5% CO2 for one day. A diluent of Test compound was prepared with assay buffer (MEM alpha containing 10 mM HEPES (Life Technologies) and 10% dialysis serum). The diluent was added to the plate at 5 μL/well and allowed to stand at 37° C. for 10 minutes. Further, a diluent of 7.8 mM CaCl2 prepared with assay buffer (final concentration 1.3 mM) was added at 5 μl/well and allowed to stand in an incubator of 37° C., 5% CO2 for 2 hours. Bright-Glo reagents (Promega Corporation) were added at 10 μL/well, and the obtained mixture was stirred for 5 minutes, and then luminescence intensity was measured using Multi-label reader Envision (PerkinElmer, Inc.). The activity (%) of the test compound was calculated with the definitions in which the luminescence intensity when DMSO is added in place of the test compound is defined as 0% inhibition; and the luminescence intensity when (5R)—N-(1-ethyl-1-(4-ethylphenyl)propyl)-2,7,7-trimethyl-5-phenyl-4,5,6,7-tetrahydropyrazolo[1,5-a] Pyrimidine-3-carboxamide at final concentration of 10 μM is added is defined as 100% inhibition.

Row | SMILES | Effect on cardiac hypertrophy [1] | Effect on cardiac hypofunction (cardiac hypofunction) | Effect on pulmonary hypertension pathology [2] | Effect on pulmonary hypertension pathology [3] | Inducibility (CYP3A) [%] | Remaining Activity (CYP3A4) [%] | inhibition at 3.3 µM (human CaSR) [%]
1 | C[C@@H](N[C@H]1CCCC[C@@H]1NC(=O)c1ccc(Cl)cc1)c1cccc2ccccc12 [Calhex231] | improves cardiac hypertrophy | fails to improve cardiac hypofunction |  |  |  |  | 
2 | CC(C)(Cc1ccc2ccccc2c1)NC[C@@H](O)COc1cccc(Cl)c1C#N [NPS-2143] |  |  | suppressed cardiac hypertrophy, elevated right ventricular systolic pressure, fibrosis of cardiac muscle tissue, pulmonary vascular remodeling or the like | suppressed cardiac hypertrophy, elevated right ventricular systolic pressure, fibrosis of cardiac muscle tissue, pulmonary vascular remodeling or the like |  |  | 
3 | CCc1ccc(C(CC)(NC(=O)c2cnn3c2N[C@@H](c2ccccc2)CC3(C)C)C(=O)N[C@H](C(N)=O)C(C)C)cc1 (single isomer, unassigned) [Example 12] |  |  |  |  | 17.3 | 74.3 | 99
4 | CCc1ccc(C(CC)(NC(=O)c2cnn3c2N[C@@H](c2ccccc2)CC3(C)C)C(=O)N[C@@H](C)C(N)=O)cc1 (single isomer, unassigned) [Example 4] |  |  |  |  | 20.8 | 95.6 | 102
5 | CCc1ccc(C(CC)(NC(=O)c2cnn3c2N[C@@H](c2ccccc2)CC3(C)C)C(=O)N[C@@H](CC)C(N)=O)cc1 (single isomer, unassigned) [Example 6] |  |  |  |  | 18.6 | 80.2 | 105

From patent US12202832B2, “Heterocyclic compounds having a calcium-sensing receptor antagonistic activity” (TAKEDA PHARMACEUTICAL COMPANY LIMITED, priority 2017, dated 2025)
